From patent US20200239530A1, “COMPOUNDS AND METHODS OF MODULATING PROTEIN DEGRADATION” (Vividion Therapeutics, Inc., priority 2017, published 2020) come the findings set out here.

Where two headings read alike, the source gives them in different places.

What all share (test): Cysteine liganding, probe competition
What all share (format): binding

In test [1] the target is T1, UniProt Q86WC4 (Homo sapiens, UniProt Q86WC4).
T1 construct: Cells were resuspended in cold PBS on ice and sonicated with a probe sonicator to achieve lysis; endogenous in cells
T1 sequence (Q86WC4 32-334): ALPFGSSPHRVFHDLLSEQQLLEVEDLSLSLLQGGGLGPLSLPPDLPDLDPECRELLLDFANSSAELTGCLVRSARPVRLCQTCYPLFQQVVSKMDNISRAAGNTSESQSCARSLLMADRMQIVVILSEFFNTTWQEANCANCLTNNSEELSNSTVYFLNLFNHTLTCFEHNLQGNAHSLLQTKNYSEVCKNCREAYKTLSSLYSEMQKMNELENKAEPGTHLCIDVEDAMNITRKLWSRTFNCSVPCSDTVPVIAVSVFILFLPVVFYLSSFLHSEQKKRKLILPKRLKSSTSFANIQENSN
An excerpt: (§1) The following 96-well sample prep protocol was used for sample preparation.

Test [2] addresses T2, UniProt Q8WV44 (Homo sapiens, UniProt Q8WV44).
T2 construct: 200 μL of lysate containing 5 mg/ml proteome was treated with 2 μL of 100× compound stock; endogenous in cells
T2 sequence (Q8WV44 1-630): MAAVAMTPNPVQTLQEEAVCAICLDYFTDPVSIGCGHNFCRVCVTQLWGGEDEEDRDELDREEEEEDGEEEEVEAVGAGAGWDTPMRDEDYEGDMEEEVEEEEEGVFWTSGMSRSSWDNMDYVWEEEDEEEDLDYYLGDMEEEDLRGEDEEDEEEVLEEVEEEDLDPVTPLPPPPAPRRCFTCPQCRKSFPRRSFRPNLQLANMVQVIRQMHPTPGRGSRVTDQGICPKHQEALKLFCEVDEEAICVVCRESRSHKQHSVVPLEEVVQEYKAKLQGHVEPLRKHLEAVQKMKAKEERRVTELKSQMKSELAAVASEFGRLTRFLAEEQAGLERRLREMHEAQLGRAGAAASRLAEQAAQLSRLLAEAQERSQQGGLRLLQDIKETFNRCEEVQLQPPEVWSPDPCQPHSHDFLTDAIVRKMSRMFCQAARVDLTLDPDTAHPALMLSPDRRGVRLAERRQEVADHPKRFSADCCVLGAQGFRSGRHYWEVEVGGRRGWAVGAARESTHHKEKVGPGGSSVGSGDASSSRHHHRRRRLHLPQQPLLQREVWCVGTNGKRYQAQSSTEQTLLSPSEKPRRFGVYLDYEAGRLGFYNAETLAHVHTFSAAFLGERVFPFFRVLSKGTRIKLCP
From the text: as §1

Test [3] addresses T3, UniProt Q9C035 (Homo sapiens, UniProt Q9C035).
T3 construct: 200 μL of lysate containing 5 mg/ml proteome was treated with 2 μL of 100× compound stock; endogenous in cells
From the text: as §1

The target of test [4] is T4, UniProt A0AVI4 (Homo sapiens, UniProt A0AVI4).
T4 construct: 200 μL of lysate containing 5 mg/ml proteome was treated with 2 μL of 100× compound stock; endogenous in cells
T4 sequence (A0AVI4 1-362): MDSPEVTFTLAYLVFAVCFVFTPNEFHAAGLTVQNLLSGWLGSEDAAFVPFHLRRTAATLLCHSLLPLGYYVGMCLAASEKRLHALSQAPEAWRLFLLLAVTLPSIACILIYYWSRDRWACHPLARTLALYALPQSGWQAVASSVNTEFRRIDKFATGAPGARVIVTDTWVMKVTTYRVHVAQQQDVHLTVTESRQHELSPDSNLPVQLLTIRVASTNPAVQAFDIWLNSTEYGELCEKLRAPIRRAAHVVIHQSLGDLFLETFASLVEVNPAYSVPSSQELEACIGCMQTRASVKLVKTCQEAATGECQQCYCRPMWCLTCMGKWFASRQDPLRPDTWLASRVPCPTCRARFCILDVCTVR
From the text: as §1

In test [5] the target is T5, UniProt O14508 (Homo sapiens, UniProt O14508).
T5 construct: 200 μL of lysate containing 5 mg/ml proteome was treated with 2 μL of 100× compound stock; endogenous in cells
T5 sequence (O14508 1-198): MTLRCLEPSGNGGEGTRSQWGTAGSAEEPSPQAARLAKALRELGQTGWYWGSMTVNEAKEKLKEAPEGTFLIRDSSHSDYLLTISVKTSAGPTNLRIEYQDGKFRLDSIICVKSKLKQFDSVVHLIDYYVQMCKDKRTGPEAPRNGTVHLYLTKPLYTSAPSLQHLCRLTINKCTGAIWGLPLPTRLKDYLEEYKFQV
Particulars: for inhibition at 100 µM: read-out: percent_inhibition.
From the text: as §1

Test [6] has as its target T6, UniProt O15524 (Homo sapiens, UniProt O15524).
T6 construct: 200 μL of lysate containing 5 mg/ml proteome was treated with 2 μL of 100× compound stock; endogenous in cells
T6 sequence (O15524 1-211): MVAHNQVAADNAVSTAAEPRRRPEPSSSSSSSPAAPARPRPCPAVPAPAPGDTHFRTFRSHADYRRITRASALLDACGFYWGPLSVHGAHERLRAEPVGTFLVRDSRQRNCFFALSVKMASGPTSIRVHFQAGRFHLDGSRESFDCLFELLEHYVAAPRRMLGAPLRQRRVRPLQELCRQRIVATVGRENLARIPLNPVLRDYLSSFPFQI
Particulars: for inhibition at 500 µM: read-out: percent_inhibition.
From the text: as §1

Test [7] addresses T7, UniProt Q9BZY9 (Homo sapiens, UniProt Q9BZY9).
T7 construct: 200 μL of lysate containing 5 mg/ml proteome was treated with 2 μL of 100× compound stock; endogenous in cells
T7 sequence (Q9BZY9 1-425): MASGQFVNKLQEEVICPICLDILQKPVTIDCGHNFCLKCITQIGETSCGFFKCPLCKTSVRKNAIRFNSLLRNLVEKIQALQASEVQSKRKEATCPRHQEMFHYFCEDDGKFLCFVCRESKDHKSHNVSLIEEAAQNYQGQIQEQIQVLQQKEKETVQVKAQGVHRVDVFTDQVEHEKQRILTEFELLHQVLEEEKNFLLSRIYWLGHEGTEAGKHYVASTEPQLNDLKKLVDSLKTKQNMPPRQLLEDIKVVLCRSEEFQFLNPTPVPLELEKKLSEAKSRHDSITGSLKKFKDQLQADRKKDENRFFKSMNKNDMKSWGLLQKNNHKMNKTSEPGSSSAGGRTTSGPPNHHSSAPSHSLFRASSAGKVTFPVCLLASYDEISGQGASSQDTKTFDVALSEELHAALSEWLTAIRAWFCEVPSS
From the text: as §1

Where [8] appears, read: read-out: KB02_500 uM_percent_inhibition.
Where [9] appears, read: read-out: KB05_500 uM_percent_inhibition.

T3 sequence (Q9C035 whole entry, change not shown): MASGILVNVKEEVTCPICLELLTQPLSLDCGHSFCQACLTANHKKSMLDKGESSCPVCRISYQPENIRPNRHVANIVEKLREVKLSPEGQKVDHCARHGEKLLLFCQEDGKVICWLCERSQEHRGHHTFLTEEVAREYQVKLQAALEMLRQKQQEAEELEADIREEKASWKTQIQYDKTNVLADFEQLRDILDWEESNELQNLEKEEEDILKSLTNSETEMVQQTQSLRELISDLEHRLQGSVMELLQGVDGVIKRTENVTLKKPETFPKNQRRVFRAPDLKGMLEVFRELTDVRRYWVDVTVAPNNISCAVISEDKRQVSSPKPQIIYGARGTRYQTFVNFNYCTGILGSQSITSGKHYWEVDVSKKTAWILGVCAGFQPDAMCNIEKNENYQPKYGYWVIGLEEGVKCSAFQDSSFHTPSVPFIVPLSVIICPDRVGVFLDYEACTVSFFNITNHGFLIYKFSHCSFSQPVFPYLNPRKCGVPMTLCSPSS

`COc1ccc2c(c1)CCCN2C(=O)CCl` [KB02]: the inhibition at 500 µM is 68% in test [1] (setting [8]); 44% in test [4] (500 uM, read-out: percent_inhibition); 38% in test [6]; 68% in test [7] (setting [8]). For the same compound, the inhibition at 100 µM was found to be 15% in test [2] (100 uM, read-out: KB02_100 uM_percent_inhibition); 13% in test [3] (read-out: KB02_100 uM_percent_inhibition); 14% in test [4] (read-out: percent_inhibition); 14% in test [5].
For `C=CC(=O)N(c1ccccc1)c1ccc(Br)cc1` [KB05], the inhibition at 500 µM in test [1] (setting [9]) was 66%; in test [2] (500 uM, read-out: KB05_500 uM_percent_inhibition), 50%; in test [6], 56%; in test [7] (setting [9]), 71%. In addition, the results for the inhibition at 100 µM in test [3] (read-out: KB05_100 uM_percent_inhibition), in test [4] (read-out: percent_inhibition) and in test [5] were 4%, 15% and 48%, respectively.
For the compound `O=C(CCl)Nc1cc(C(F)(F)F)cc(C(F)(F)F)c1` [KBO3], the “KB03_500 uM_percent_inhibition” value in test [1] (500 uM) was determined as 58%; in test [7] (500 uM), 48%. Further, the results for the “KB03_100 uM_percent_inhibition” value in test [2] (100 uM) and in test [3] (100 uM) were 31% and 18%, respectively. The percent_inhibition amounted to 58% in test [4] (500 uM), 30% in test [5] (100 uM) and 35% in test [6] (500 uM).
